Experimental data from patent US12391697B2, “Condensed bi-heterocycles as inhibiting agents for Bruton's tyrosine kinase” (BIOGEN MA INC., priority 2019, dated 2025).
Where a name gives a salt, the structure may show the parent alone.

Target: BTK (Homo sapiens (Human), UniProt Q06187)
Test: In Vitro BTK Kinase Assay: Btk-PolyGAT-LS Assay
Type: biochemical
Conditions: active BTK enzyme 0.25 nM, ATP 10 μM, polyGAT 100 nM, 30 minutes
Procedure: In Vitro BTK Kinase Assay: Btk-PolyGAT-LS Assay
The purpose of the BTK in vitro assay is to determine compound potency against BTK through the measurement of IC50. […] The BTK kinase reaction was done in a black 96 well plate (costar 3694). For a typical assay, a […] aliquot of a ATP/peptide master mix (final concentration; ATP 10 μM, polyGAT 100 nM) in kinase buffer (10 mM Tris-HCl pH 7.5, 10 mM MgCl2, 200 μM […], 5 mM DTT, 0.01% Triton X-100, and 0.2 mg/ml casein) is added to each well. Next, […] of a 4-fold, 40× compound titration in 100% DMSO solvent is added, followed by adding 15 uL of BTK enzyme mix in 1× kinase buffer (with a final concentration of 0.25 nM). The assay is incubated for 30 minutes before being stopped with […] of a 50 mM EDTA solution. Aliquots (5 uL) of the kinase reaction are transferred to a low volume white 384 well plate (Corning 3674), and […] of a 2× detection buffer (Invitrogen PV3574, with 4 nM Tb-PY20 antibody, Invitrogen PV3552) is added. The plate is covered and incubated for 45 minutes at room temperature. Time resolved fluorescence (TRF) on Molecular Devices M5 (332 nm excitation; 488 nm emission; 518 nm fluorescein emission) is measured.

Chain of BTK (Q06187 whole entry): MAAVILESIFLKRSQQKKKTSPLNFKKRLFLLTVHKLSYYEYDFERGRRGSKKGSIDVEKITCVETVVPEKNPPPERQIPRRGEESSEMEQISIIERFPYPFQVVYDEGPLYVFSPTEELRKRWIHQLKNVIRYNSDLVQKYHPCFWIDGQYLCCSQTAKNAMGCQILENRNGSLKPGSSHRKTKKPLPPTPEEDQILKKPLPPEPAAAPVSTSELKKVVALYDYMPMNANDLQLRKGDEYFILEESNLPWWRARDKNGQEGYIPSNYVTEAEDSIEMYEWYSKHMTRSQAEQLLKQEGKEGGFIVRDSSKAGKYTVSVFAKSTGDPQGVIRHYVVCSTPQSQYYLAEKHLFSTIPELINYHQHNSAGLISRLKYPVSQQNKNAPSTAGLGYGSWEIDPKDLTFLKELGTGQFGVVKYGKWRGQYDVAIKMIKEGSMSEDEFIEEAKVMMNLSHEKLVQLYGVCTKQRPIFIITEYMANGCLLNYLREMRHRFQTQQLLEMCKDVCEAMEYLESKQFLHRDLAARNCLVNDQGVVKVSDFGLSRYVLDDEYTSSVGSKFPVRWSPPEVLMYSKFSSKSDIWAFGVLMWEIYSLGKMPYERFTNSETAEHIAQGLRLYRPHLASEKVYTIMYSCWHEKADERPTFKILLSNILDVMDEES

Row | SMILES | IC50
1 | Cc1cc(-c2ncnn3cc(N4CCOCC4)cc23)ccc1CNC(=O)c1nnn(C(C)(C)C)n1 [Example 114] | ≤ 1 nM
2 | Cc1cc(-c2ncnn3cc(C4=CCOCC4)cc23)ccc1CNC(=O)c1coc(C(C)(C)C)n1 [Example 124] | ≤ 1 nM
3 | COc1cc(-c2ncnn3cc(-c4cnn(C)c4)cc23)ccc1CNC(=O)c1nc(C(C)(C)C)no1 [Example 189] | ≤ 1 nM
4 | Cc1c(CNC(=O)c2nnc(C(C)(C)C)o2)ccc(-c2ncnn3cc(N4CCOCC4)cc23)c1F [Example 81] | 1 to 10 nM
5 | COc1cc(-c2ncnn3cc(-c4cnn(C)c4)cc23)ccc1CNC(=O)c1nnc(C(C)(C)C)o1 [Example 197] | 1 to 10 nM
6 | CC(C)(C)c1nc(C(=O)NCc2ccc(-c3ncnn4cc(-c5cnn(CC(F)F)c5)cc34)cc2C(F)F)co1 [Example 210] | ≤ 1 nM
7 | Cn1cc(-c2cc3c(-c4ccc(CNC(=O)c5nc(C(C)(C)C)no5)c(C(F)F)c4F)ncnn3c2)cn1 [Example 194] | ≤ 1 nM
8 | Cn1cc(-c2cc3c(-c4ccc(CNC(=O)c5cnn(C(C)(C)C)c5)c(C(F)(F)F)c4)ncnn3c2)cn1 [Example 61, 1-(tert-butyl)-N-(4-(6-(1-methyl-1H-pyrazol-4-yl)pyrrolo[2,1-f][1,2,4]triazin-4-yl)-2-(trifluoromethyl)benzyl)-1H-pyrazole-4-carboxamide] | ≤ 1 nM
9 | Cn1cc(-c2cc3c(-c4ccc(CNC(=O)c5cn(C(C)(C)C)nn5)c(C(F)F)c4F)ncnn3c2)cn1 [Example 195] | 1 to 10 nM
10 | CC(C)(C)n1cc(C(=O)NCc2ccc(-c3ncnn4cc(N5CCOCC5)cc34)c(F)c2Cl)nn1 [Example 157] | ≤ 1 nM
11 | Cn1cc(-c2cc3c(-c4ccc(CNC(=O)c5nc(C(C)(C)C)no5)c(C(F)F)c4)ncnn3c2)cn1 [Example 190] | ≤ 1 nM
12 | Cc1cc(-c2ncnn3cc(N4CC[C@@H](F)C4)cc23)ccc1CNC(=O)c1noc(C(C)(C)C)n1 (single isomer, unassigned) [Example 142] | ≤ 1 nM
13 | Cc1cc(-c2ncnn3cc(N4CCN(C)C(C)C4)cc23)ccc1CNC(=O)c1nnn(C(C)(C)C)n1 (stereo not shown) [Example 98] | ≤ 1 nM
14 | Cc1cc(-c2ncnn3cccc23)ccc1CNC(=O)c1nc(C(C)(C)C)no1 [Example 152] | 1 to 10 nM
15 | Cc1cc(-c2ncnn3cc(CC4CCOCC4)cc23)ccc1CNC(=O)c1noc(C(C)(C)C)n1 [Example 94] | > 10 nM
16 | COC1CCN(c2cc3c(-c4ccc(CNC(=O)c5nc(C(C)(C)C)no5)c(C)c4)ncnn3c2)CC1 [Example 97] | ≤ 1 nM
17 | COc1c(CNC(=O)c2noc(C(C)(C)C)n2)ccc(-c2ncnn3cc(N4CCOCC4)cc23)c1F [Example 223] | ≤ 1 nM
18 | Cc1cc(-c2ncnn3cc(-c4cn(C)nc4C)cc23)ccc1CNC(=O)c1noc(C(C)(C)C)n1 [Example 108] | ≤ 1 nM
19 | CC(C)(C)c1noc(C(=O)NCc2ccc(-c3ncnn4cc(N5CCOCC5)cc34)cc2C(F)(F)F)n1 [Example 186] | ≤ 1 nM
20 | Cc1cc(-c2ncnn3cc(-c4cnn(C)c4)cc23)ccc1CNC(=O)c1noc(C(C)(C)CF)n1 [Example 41, 5-(1-fluoro-2-methylpropan-2-yl)-N-(2-methyl-4-(6-(1-methyl-1H-pyrazol-4-yl)pyrrolo[2,1-f][1,2,4]triazin-4-yl)benzyl)-1,2,4-oxadiazole-3-carboxamide] | ≤ 1 nM
21 | Cc1cc(-c2ncnn3cc(C4=CCOCC4)cc23)ccc1CNC(=O)c1nc(C(C)(C)C)no1 [Example 103] | ≤ 1 nM
22 | Cc1cc(-c2ncnn3cc(N4CCn5ccnc5C4)cc23)ccc1CNC(=O)c1noc(C(C)(C)C)n1 [Example 120] | ≤ 1 nM
23 | CC(C)(C)n1nnc(C(=O)NCc2cc(F)c(-c3ncnn4cccc34)cc2Cl)n1 [Example 136] | > 10 nM
24 | CC(C)(C)c1nnc(C(=O)NCc2ccc(-c3ncnn4cc(N5CCOCC5)cc34)c(F)c2C(F)F)o1 [Example 199] | 1 to 10 nM
25 | CC(C)(C)c1nc(C(=O)NCc2ccc(-c3ncnn4cccc34)cc2C(F)(F)F)no1 [Example 179] | 1 to 10 nM
26 | Cc1cc2c(-c3ccc(CNC(=O)c4noc(C(C)(C)C)n4)c(C)c3)ncnn2c1 [Example 55] | ≤ 1 nM
27 | Cc1cc(-c2ncnn3cc(N4CCOCC4)cc23)ccc1CNC(=O)c1nc(C(C)(C)C)no1 [Example 105] | ≤ 1 nM
28 | Cc1cc(-c2ncnn3cc(-c4cnn(C5CC5)c4)cc23)ccc1CNC(=O)c1noc(C(C)(C)C)n1 [Example 237] | ≤ 1 nM

Row | SMILES | IC50
29 | Cc1cc(-c2ncnn3cc(N4CCOCC4)cc23)ccc1CNC(=O)c1coc(C(C)(C)C)n1 [Example 176] | 1 to 10 nM
30 | Cc1cc(-c2ncnn3cc(N4CCOCC4)cc23)ccc1CNC(=O)c1ccn(C(C)(C)C)n1 [Example 175] | 1 to 10 nM
31 | Cc1cc(-c2ncnn3cc(N4CCN5CC(F)(F)C[C@H]5C4)cc23)ccc1CNC(=O)c1nc(C(C)(C)C)no1 [Example 123] | ≤ 1 nM
32 | Cc1cc(-c2ncnn3cc(C4=CCOCC4)cc23)ccc1CNC(=O)c1nnn(C(C)(C)C)n1 [Example 128] | ≤ 1 nM
33 | Cc1cc(-c2cc3c(-c4ccc(CNC(=O)c5noc(C(C)(C)C)n5)c(C)c4)ncnn3c2)cnn1 [Example 170] | ≤ 1 nM
34 | CC(C)(C)c1noc(C(=O)NCc2ccc(-c3ncnn4cc(N5CCOCC5)cc34)cc2Cl)n1 [Example 159] | ≤ 1 nM
35 | CC(C)(C)c1nc(C(=O)NCc2ccc(-c3ncnn4cccc34)cc2Cl)no1 [Example 178] | 1 to 10 nM
36 | Cc1cc(-c2ncnn3cc(N4CCN(C)C(=O)C4)cc23)ccc1CNC(=O)c1noc(C(C)(C)C)n1 [Example 177] | ≤ 1 nM
37 | Cc1cc(-c2ncnn3cc(N4CCN(C)[C@@H](C)C4)cc23)ccc1CNC(=O)c1noc(C(C)(C)C)n1 (single isomer, unassigned) [Example 116] | ≤ 1 nM
38 | Cc1cc(-c2ncnn3cc(-c4cn[nH]c4)cc23)ccc1CNC(=O)c1noc(C(C)(C)C)n1 [Example 85] | ≤ 1 nM
39 | Cc1c(CNC(=O)c2cn(C(C)(C)C)nn2)ccc(-c2ncnn3cc(N4CCOCC4)cc23)c1F [Example 87] | ≤ 1 nM
40 | CC(C)(C)c1nnc(C(=O)NCc2ccc(-c3ncnn4cc(C5=CCOCC5)cc34)cc2C(F)F)o1 [Example 213] | 1 to 10 nM
41 | COCc1cc2c(-c3ccc(CNC(=O)c4noc(C(C)(C)C)n4)c(C)c3)ncnn2c1 [Example 77, 5-(tert-butyl)-N-(4-(6-(methoxymethyl)pyrrolo[2,1-f][1,2,4]triazin-4-yl)-2-methylbenzyl)-1,2,4-oxadiazole-3-carboxamide hydrochloride] | 1 to 10 nM
42 | Cc1c(CNC(=O)c2noc(C(C)(C)C)n2)ccc(-c2ncnn3cccc23)c1F [Example 218] | ≤ 1 nM
43 | Cc1c(CNC(=O)c2nc(C(C)(C)C)no2)ccc(-c2ccnc3cc(N4CCOCC4)nn23)c1F [Example 118] | 1 to 10 nM
44 | Cc1c(CNC(=O)c2noc(C(C)(C)C)n2)ccc(-c2ncnn3cc(N4CCOCC4)cc23)c1F [Example 86] | ≤ 1 nM
45 | Cc1cc(-c2ncnn3cc(N4CCO[C@H](C)C4)cc23)ccc1CNC(=O)c1coc(C(C)(C)C)n1 (single isomer, unassigned) [Example 143] | ≤ 1 nM
46 | Cc1cc(-c2ncnn3cccc23)ccc1CNC(=O)c1nnc(C(C)(C)C)o1 [Example 185] | > 10 nM
47 | Cc1cc(-c2ncnn3cc(OC4CCOCC4)cc23)ccc1CNC(=O)c1noc(C(C)(C)C)n1 [Example 79, 5-(tert-butyl)-N-(2-methyl-4-(6-((tetrahydro-2H-pyran-4-yl)oxy)pyrrolo[2,1-f][1,2,4]triazin-4-yl)benzyl)-1,2,4-oxadiazole-3-carboxamide] | 1 to 10 nM
48 | CC(C)(C)c1coc(C(=O)NCc2ccc(-c3ncnn4cc(N5CCOCC5)cc34)cc2C(F)F)n1 [Example 222] | 1 to 10 nM
49 | Cc1cc(-c2ncnn3cc(C4COC4)cc23)ccc1CNC(=O)c1noc(C(C)(C)C)n1 [Example 71, 5-(tert-butyl)-N-(2-methyl-4-(6-(oxetan-3-yl)pyrrolo[2,1-f][1,2,4]triazin-4-yl)benzyl)-1,2,4-oxadiazole-3-carboxamide trifluoroacetate] | > 10 nM
50 | Cc1cc(-c2ncnn3cc(C4CCOCC4)cc23)ccc1CNC(=O)c1nc(C(C)(C)C)no1 [Example 72, 3-(tert-butyl)-N-(2-methyl-4-(6-(tetrahydro-2H-pyran-4-yl)pyrrolo[2,1-f][1,2,4]triazin-4-yl)benzyl)-1,2,4-oxadiazole-5-carboxamide trifluoroacetate] | 1 to 10 nM
51 | Cc1cc(-c2ncnn3cccc23)ccc1CNC(=O)c1cnn(C(C)(C)C)c1 [Example 183] | 1 to 10 nM
52 | Cc1cc(-c2ncnn3cc(N4CCN(C5COC5)C[C@@H]4C)cc23)ccc1CNC(=O)c1noc(C(C)(C)C)n1 [Example 75, (S)-5-(tert-butyl)-N-(2-methyl-4-(6-(2-methyl-4-(oxetan-3-yl)piperazin-1-yl)pyrrolo[2,1-f][1,2,4]triazin-4-yl)benzyl)-1,2,4-oxadiazole-3-carboxamide] | 1 to 10 nM
53 | CC(C)(C)c1noc(C(=O)NCc2ccc(-c3ncnn4cc(N5CCOCC5)cc34)cc2C(F)F)n1 [Example 192] | ≤ 1 nM
54 | Cc1c(CNC(=O)c2noc(C(C)(C)C)n2)ccc(-c2ccnc3cc(N4CCOCC4)nn23)c1F [Example 84] | 1 to 10 nM
55 | Cc1cc(-c2ncnn3cnc(C)c23)ccc1CNC(=O)c1noc(C(C)(C)C)n1 [Example 48] | 1 to 10 nM
